Three compounds from US5043332A, “Novel 11β-substituted -19-nor-steriods” (priority 1981, dated 1991) can be followed below.

Structures are written as SMILES.

For test [1], the target named is T1, Androgen receptor of prostate of rats (Rattus norvegicus, UniProt P15207).
T1 construct: The prostates were removed, weighed and homogenized at 0° C; from tissue; host or cells: rat prostate, 105,000 g supernatant (castrated male Sprague-Dawley rats)
T1 sequence (P15207 1-902): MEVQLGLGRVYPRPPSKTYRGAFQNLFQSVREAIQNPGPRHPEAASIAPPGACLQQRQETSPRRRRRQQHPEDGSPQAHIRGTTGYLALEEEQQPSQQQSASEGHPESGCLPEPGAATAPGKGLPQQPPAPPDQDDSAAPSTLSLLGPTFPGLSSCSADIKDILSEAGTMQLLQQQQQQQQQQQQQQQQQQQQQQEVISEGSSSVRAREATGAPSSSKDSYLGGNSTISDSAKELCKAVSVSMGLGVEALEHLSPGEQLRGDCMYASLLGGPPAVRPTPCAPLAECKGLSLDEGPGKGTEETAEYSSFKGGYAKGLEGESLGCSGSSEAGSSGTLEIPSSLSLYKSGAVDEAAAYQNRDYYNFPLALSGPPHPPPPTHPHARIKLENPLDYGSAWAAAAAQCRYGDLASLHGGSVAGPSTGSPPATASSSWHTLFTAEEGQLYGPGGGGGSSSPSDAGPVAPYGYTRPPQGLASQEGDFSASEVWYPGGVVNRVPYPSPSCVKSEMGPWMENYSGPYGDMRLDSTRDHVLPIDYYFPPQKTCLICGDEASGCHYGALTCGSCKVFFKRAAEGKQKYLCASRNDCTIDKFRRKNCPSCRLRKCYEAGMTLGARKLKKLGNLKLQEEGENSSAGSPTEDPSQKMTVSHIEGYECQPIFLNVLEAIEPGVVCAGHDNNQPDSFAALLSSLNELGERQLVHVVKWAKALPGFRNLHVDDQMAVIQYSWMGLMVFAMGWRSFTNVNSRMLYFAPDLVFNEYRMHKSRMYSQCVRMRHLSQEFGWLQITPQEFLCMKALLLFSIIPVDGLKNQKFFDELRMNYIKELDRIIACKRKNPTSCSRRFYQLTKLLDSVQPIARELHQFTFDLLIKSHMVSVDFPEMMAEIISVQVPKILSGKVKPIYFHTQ
Briefly: Androgen receptor binding (displacement of tritiated product P). Particulars: for relative affinity of tieing (ARL), Androgen: second table, incubation 24 H at 0° C. In a few lines:
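Male Sprague-Dawley EPOS rats of 160 to 200 g were castrated and killed 24 hours later. Prostates were homogenized at 0° C. in Tris 10 mM, 0.25M saccharose, HCl buffer at pH 7.4 (1 g tissue per 5 ml) and ultracentrifuged at 105,000 g. Cytosol was incubated with tritiated product P plus increasing cold competitor (0-1,000×10^-9 M). Bound tritium was measured by carbon-dextran adsorption. ARL was derived from the 50% inhibitory concentrations of reference and test compound.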

For test [2], the target named is T2, Gluocorticoid receptor of thymus of rats (Rattus norvegicus, UniProt P06536).
T2 construct: The thymus were removed and homogenized at 0° C; from tissue; host or cells: rat thymus, 105,000 g supernatant (adrenalectomized male Sprague-Dawley rats)
T2 sequence (P06536 1-795): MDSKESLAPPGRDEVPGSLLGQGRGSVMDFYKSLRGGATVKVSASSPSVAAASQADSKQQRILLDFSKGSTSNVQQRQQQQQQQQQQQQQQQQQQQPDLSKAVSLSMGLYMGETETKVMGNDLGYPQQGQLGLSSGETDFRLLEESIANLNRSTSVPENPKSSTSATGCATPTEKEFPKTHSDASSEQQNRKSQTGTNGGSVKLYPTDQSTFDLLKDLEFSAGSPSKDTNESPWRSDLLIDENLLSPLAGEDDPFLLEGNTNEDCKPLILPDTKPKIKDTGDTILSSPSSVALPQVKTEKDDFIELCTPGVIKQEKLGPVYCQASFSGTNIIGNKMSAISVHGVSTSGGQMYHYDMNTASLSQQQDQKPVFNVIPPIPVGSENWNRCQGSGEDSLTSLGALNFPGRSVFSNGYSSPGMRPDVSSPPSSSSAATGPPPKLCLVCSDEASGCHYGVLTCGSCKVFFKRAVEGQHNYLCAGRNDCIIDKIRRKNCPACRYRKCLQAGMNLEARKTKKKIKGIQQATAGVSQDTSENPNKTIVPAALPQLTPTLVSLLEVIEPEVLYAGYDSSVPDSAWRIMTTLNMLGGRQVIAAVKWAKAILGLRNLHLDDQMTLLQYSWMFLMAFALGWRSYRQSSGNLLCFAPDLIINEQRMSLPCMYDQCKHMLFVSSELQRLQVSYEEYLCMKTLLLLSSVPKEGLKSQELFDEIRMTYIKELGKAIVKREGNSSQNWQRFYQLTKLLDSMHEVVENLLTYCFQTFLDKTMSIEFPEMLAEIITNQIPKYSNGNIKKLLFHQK
Description: Glucocorticoid receptor binding (displacement of tritiated dexamethasone). Particulars: for relative affinity of tieing (ARL), Glucocorticoid: second table.

For test [3], the system named is thymocytes of surrenalectomized rats. Briefly: Antiglucocorticoidal activity, incorporation of tritiated uridine in thymocytes. Type of test: cell-based. Particulars: for inhibition at 0.1 µM: 5 × 10^-8 M dexamethasone + test product 10^-7 M; for inhibition at 0.01 µM: 5 × 10^-8 M dexamethasone + test product 10^-8 M; for opposition to the effect of dexamethasone on tritiated uridine incorporation (in words): with 5×10^-8 M dexamethasone.

Setting [4] is: Rattus norvegicus, Thymocyte, second table, read-out: % of inhibition of effect of Dexamethasone.
Setting [5] is: second table, 5 × 10^-8 M dexamethasone + test product 10^-6 M.

Regarding `CN(C)c1ccc([C@H]2C[C@@]3(C)[C@@H](CC[C@@]3(O)C#Cc3ccccc3)[C@@H]3CCC4=CC(=O)CCC4=C32)cc1` [Example 29, 11β-[4-(N,N-dimethylamino)-phenyl]-21-phenyl-19-nor-17α-Δ^4,9-pregnadiene-20-yne-17β-ol-3-one], the “relative affinity of tieing (ARL), Androgen” value (“relative affinity … Androgen” for short) in test [1] is given as 0. Moreover, the “relative affinity of tieing (ARL), Glucocorticoid” value (shortened to “relative affinity … Glucocorticoid”) in test [2] (incubation 4 H at 0° C.) is 46. Also, in test [2] (incubation 24 H at 0° C.), the “relative affinity … Glucocorticoid” value was 94. Besides, in test [3] (setting [4]), the inhibition (in general, the share of the control response that was lost under treatment) at 0.1 µM was determined as 57% and the inhibition at 0.01 µM turned out to be 18%. Further, in test [3] (setting [5]), the “% of inhibition of effect of Dexamethasone (symbol)” value is listed as “* (A dose of 10^-6 M inhibited totally the effect of dexamethasone)”. The “opposition to the effect of dexamethasone on tritiated uridine incorporation (in words)” value (from here on “opposition to the effect”) in test [3] is given as “opposed this effect”.

As to `CC#C[C@]1(O)CC[C@H]2[C@@H]3CCC4=CC(=O)CCC4=C3[C@@H](c3ccc([N+](C)(C)[O-])cc3)C[C@@]21C` [Example 35, N-oxide of 11β-[4-(N,N-dimethylamino)-phenyl]-17α-(prop-1-ynyl)-Δ^4,9-estradiene-17β-ol-3-one], the “relative affinity … Androgen” value in test [1] was 2,2. The “relative affinity … Glucocorticoid” value in test [2] (incubation 4 H at 0° C.) is reported as 7,8. Further, the “relative affinity … Glucocorticoid” value in test [2] (incubation 24 H at 0° C.) was found to be 5. Moreover, the inhibition at 1 µM in test [3] (Rattus norvegicus, Thymocyte, second table, 5 × 10^-8 M dexamethasone + test product 10^-6 M, read-out: % of inhibition of effect of Dexamethasone) was 50%. In test [3] (setting [4]), the inhibition at 0.1 µM was 21% and the inhibition at 0.01 µM was 4%. For the same compound, the “opposition to the effect” value in test [3] is “opposed this effect”.

Consider `C=CC[C@]1(O)CC[C@H]2[C@@H]3CCC4=CC(=O)CCC4=C3[C@@H](c3ccc(N(C)C)cc3)C[C@@]21C` [Example 37, 11β-[4-(N,N-dimethylamino)-phenyl]-17α-(prop-2-enyl)-Δ^4,9-estradien-17β-ol-3-one], for which the “affinity for androgen receptors (in words)” value in test [1] (conclusion) is “slightly moderate affinity”. The “relative affinity … Androgen” value in test [1] is on record as 8. Further, in test [2] (conclusion), the “affinity for glucocorticoid receptors (in words)” value was “very remarkable affinity”. Besides, the figures for the “relative affinity … Glucocorticoid” value in test [2] (incubation 4 H at 0° C.) and in test [2] (incubation 24 H at 0° C.) were 178 and 221, respectively. Moreover, the “% of inhibition of effect of Dexamethasone (symbol)” value in test [3] (setting [5]) is given as “* (A dose of 10^-6 M inhibited totally the effect of dexamethasone)”. In addition, the “opposition to the effect” value in test [3] was “opposed this effect”.
